Assay results: patent US10919851B2, “2-pyrrolidine phenylhydrazides antibacterial agents” (ABAC THERAPEUTICS, S.L, priority 2016, dated 2021)
≈ marks a conversion by molar mass, not a printed value.

Columns and labels:
Escherichia coli = assay: MIC, standard microtiter dilution method (CLSI M07-A9); format: cell-based; conditions: Cation adjusted Mueller-Hinton Broth, 37° C., 24 hours
Method: (§1) The products of the present invention were tested for their activity against Acinetobacter baumannii (A. baumannii) as well as against the following bacteria: Staphylococcus aureus (S. aureus), Streptococcus pneumoniae (S. pneumoniae), Enterococcus faecium (E. faecium), Pseudomonas aeruginosa (P. aeruginosa), Klebsiella pneumoniae (K. pneumoniae) and Escherichia coli (E. coli). Minimal inhibitory concentrations (MICs) were determined using a standard microtiter dilution method, according to the Clinical and Laboratory Standards Institute (CLSI) procedures, in particular according to […]-A9: “Methods for Dilution Antimicrobial Susceptibility Tests for Bacteria That Grow Aerobically; Approved Standard-Ninth Edition”. Briefly, compounds were dissolved with dimethyl sulfoxide (DMSO) at 12.8 mg/mL. Serial two-fold dilutions of compounds were performed in DMSO and 1 μl of each dilution were transferred into microtiter culture plates, followed by 100 μl of inoculated culture media to give a final microorganism concentration of 5×10^5 colony-forming units/mL. Plates were incubated at 37° C. for 24 hours and MICs determined as the lowest compound concentration that inhibited growth. Media used in determinations were Cation adjusted Mueller-Hinton Broth for all the microorganisms except for S. pneumoniae and E. faecium whose culture media were supplemented with 2.5% of lysed horse blood. Incubations were performed at air atmosphere except S. pneumoniae cultures that were incubated with 5% CO2 atmosphere.

Staphylococcus aureus = assay: as above; format: cell-based; conditions: Cation adjusted Mueller-Hinton Broth, 37° C., 24 hours, read-out: MIC S. aureus
Method: as §1

Acinetobacter baumannii = assay: as above; format: cell-based; conditions: Cation adjusted Mueller-Hinton Broth, 37° C., 24 hours
Method: as §1

Streptococcus pneumoniae = assay: as above; format: cell-based; conditions: media with 2.5% lysed horse blood, 5% CO2, 37° C., 24 hours, read-out: MIC S. pneumoniae
Method: as §1

Klebsiella pneumoniae = assay: as above; format: cell-based; conditions: Cation adjusted Mueller-Hinton Broth, 37° C., 24 hours, read-out: MIC K. pneumoniae
Method: as §1

Enterococcus faecium = assay: as above; format: cell-based; conditions: media with 2.5% lysed horse blood, 37° C., 24 hours, read-out: MIC E. faecium
Method: as §1

Pseudomonas aeruginosa = assay: as above; format: cell-based; conditions: Cation adjusted Mueller-Hinton Broth, 37° C., 24 hours, read-out: MIC P. aeruginosa
Method: as §1

Compound | MIC (Escherichia coli) | MIC (Staphylococcus aureus) | MIC (Acinetobacter baumannii) | MIC (Streptococcus pneumoniae) | MIC (Klebsiella pneumoniae) | MIC (Enterococcus faecium) | MIC (Pseudomonas aeruginosa) | melting point
CC(=O)N1CCC[C@@H]1C(=O)NNc1ccc(F)cc1 [Example 14, (R)-1-acetyl-N′-(4-fluorophenyl)pyrrolidine-2-carbohydrazide] | > 128 µg/mL | > 128 µg/mL | 2 µg/mL (≈ 7.54 µM) | > 128 µg/mL | > 128 µg/mL | > 128 µg/mL | > 128 µg/mL | 
NC(=O)N1CCC[C@H]1C(=O)NNc1ccc(F)cc1 [Example 3, (S)-2-(2-(4-fluorophenyl) hydrazinecarbonyl) pyrrolidine-1-carboxamide] | > 128 µg/mL | > 128 µg/mL | 4 µg/mL (≈ 15 µM) | > 128 µg/mL | > 128 µg/mL | > 128 µg/mL | > 128 µg/mL | 
NC(=O)N1CCCC1C(=O)NNc1ccc(OC(F)(F)F)cc1 (stereo not drawn) [Example 7, 2-(2-(4-(trifluoromethoxy)phenyl)hydrazinecarbonyl)pyrrolidine-1-carboxamide] | > 128 µg/mL | 128 µg/mL (≈ 385 µM) | 8 µg/mL (≈ 24.1 µM) | > 128 µg/mL | > 128 µg/mL | > 128 µg/mL | > 128 µg/mL | 
NC(=O)N1CCCC1C(=O)NNc1ccc2c(c1)OCCO2 (stereo not drawn) [Example 11, 2-(2-(2,3-dihydrobenzo[b][1,4]dioxin-6-yl) hydrazinecarbonyl)pyrrolidine-1-carboxamide] | > 128 µg/mL | > 128 µg/mL | 8 µg/mL (≈ 26.1 µM) | > 128 µg/mL | > 128 µg/mL | > 128 µg/mL | > 128 µg/mL | 
COc1ccc(NNC(=O)C2CCCN2C(N)=O)cc1 (stereo not drawn) [Example 10, 2-(2-(4-methoxyphenyl)hydrazinecarbonyl)pyrrolidine-1-carboxamide] | > 128 µg/mL | > 128 µg/mL | 2 µg/mL (≈ 7.19 µM) | > 128 µg/mL | > 128 µg/mL | > 128 µg/mL | > 128 µg/mL | 
NC(=O)N1CCCC1C(=O)NNc1ccc(Cl)cc1F (stereo not drawn) [Example 9, 2-(2-(4-chloro-2-fluorophenyl)hydrazinecarbonyl)pyrrolidine-1-carboxamide] | > 128 µg/mL | > 128 µg/mL | 8 µg/mL (≈ 26.6 µM) | > 128 µg/mL | > 128 µg/mL | > 128 µg/mL | > 128 µg/mL | 
NC(=O)N1CCC[C@@H]1C(=O)NNc1ccc(F)cc1 [Example 2, (R)-2-(2-(4-fluorophenyl)hydrazinecarbonyl)pyrrolidine-1-carboxamide] | > 128 µg/mL | > 128 µg/mL | 4 µg/mL (≈ 15 µM) | > 128 µg/mL | > 128 µg/mL | > 128 µg/mL | > 128 µg/mL | 
O=C(NNc1ccc(F)cc1)C1CCCN1O (stereo not drawn) [Example 15, N′-(4-fluorophenyl)-1-hydroxypyrrolidine-2-carbohydrazide] | > 128 µg/mL | > 128 µg/mL | 1 µg/mL (≈ 4.18 µM) | > 128 µg/mL | > 128 µg/mL | > 128 µg/mL | > 128 µg/mL | 
NC(=O)N1CCCC1C(=O)NNc1ccc(F)cc1 (stereo not drawn) [Example 4, 2-(2-(4-fluorophenyl)hydrazinecarbonyl)pyrrolidine-1-carboxamide] | > 128 µg/mL | > 128 µg/mL | 2 µg/mL (≈ 7.51 µM) | > 128 µg/mL | > 128 µg/mL | > 128 µg/mL | > 128 µg/mL | 140 to 144 °C
CN1CC2CC2C1C(=O)NNc1ccc(F)cc1 (stereo not drawn) [Example 26, N′-(4-fluorophenyl)-3-methyl-3-azabicyclo[3.1.0]hexane-2-carbohydrazide] | > 128 µg/mL | > 128 µg/mL | 0.25 µg/mL (≈ 1 µM) | > 128 µg/mL | > 128 µg/mL | > 128 µg/mL | > 128 µg/mL | 

Next, values leading:

MIC (Escherichia coli) | MIC (Staphylococcus aureus) | MIC (Acinetobacter baumannii) | MIC (Streptococcus pneumoniae) | MIC (Klebsiella pneumoniae) | MIC (Enterococcus faecium) | MIC (Pseudomonas aeruginosa) | melting point | Compound
> 128 µg/mL | > 128 µg/mL | 2 µg/mL | > 128 µg/mL | > 128 µg/mL | > 128 µg/mL | > 128 µg/mL |  | Cl.N=C(N)N1CCCC1C(=O)NNc1ccc(F)cc1 (stereo not drawn) [Example 30, 2-(2-(4-fluorophenyl)hydrazinecarbonyl)pyrrolidine-1-carboximidamide hydrochloride]
> 128 µg/mL | > 128 µg/mL | 0.25 µg/mL (≈ 0.901 µM) | > 128 µg/mL | > 128 µg/mL | > 128 µg/mL | > 128 µg/mL |  | O=C(NNc1ccc(F)cc1)[C@@H]1CCCN1CC1CC1 [Example 25, (S)-1-(cyclopropylmethyl)-N′-(4-fluorophenyl)pyrrolidine-2-carbohydrazide]
> 128 µg/mL | 128 µg/mL | 8 µg/mL | > 128 µg/mL | > 128 µg/mL | > 128 µg/mL | > 128 µg/mL |  | Cl.O=C(NNc1ccc(F)cc1)C1CCCN1C(=O)N1CCNCC1 (stereo not drawn) [Example 18, N′-(4-fluorophenyl)-1-(piperazine-1-carbonyl)pyrrolidine-2-carbohydrazide hydrochloride]
> 128 µg/mL | > 128 µg/mL | 0.25 µg/mL (≈ 0.995 µM) | > 128 µg/mL | > 128 µg/mL | > 128 µg/mL | > 128 µg/mL |  | CN1CCCC1(C)C(=O)NNc1ccc(F)cc1 (stereo not drawn) [Example 16, N′-(4-fluorophenyl)-1,2-dimethylpyrrolidine-2-carbohydrazide]
